Laboratory results reported in ChEMBL document CHEMBL4765228, “Indole-like Trk receptor antagonists” (Eur J Med Chem, 2016).

Experiments:
[1] = molecular target: Tyrosine-protein kinase BTK (Homo sapiens) (UniProt Q06187); assay: Inhibition of human BTK assessed as residual activity at 0.1 uM relative to control
[2] = molecular target: Calcium/calmodulin-dependent protein kinase type 1D (Homo sapiens) (UniProt Q8IU85); assay: Inhibition of human CAMK1D assessed as residual activity at 1 uM relative to control
Sequence of Calcium/calmodulin-dependent protein kinase type 1D (Homo sapiens) (Q8IU85 whole entry, looked up): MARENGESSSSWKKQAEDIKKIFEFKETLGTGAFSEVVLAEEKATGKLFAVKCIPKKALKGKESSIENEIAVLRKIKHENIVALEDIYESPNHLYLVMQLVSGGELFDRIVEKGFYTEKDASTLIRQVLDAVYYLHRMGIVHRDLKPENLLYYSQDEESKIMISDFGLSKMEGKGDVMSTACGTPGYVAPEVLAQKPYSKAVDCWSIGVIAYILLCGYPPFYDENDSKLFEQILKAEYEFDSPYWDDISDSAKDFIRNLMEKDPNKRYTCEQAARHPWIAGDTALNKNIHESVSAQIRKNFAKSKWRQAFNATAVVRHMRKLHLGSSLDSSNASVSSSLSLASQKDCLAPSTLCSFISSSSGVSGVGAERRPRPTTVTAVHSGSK

[3] = molecular target: T1, Interleukin-1 receptor-associated kinase 4 (Homo sapiens) (UniProt Q9NWZ3); assay: Inhibition of human untagged IRAK4 assessed as residual activity at 1 uM relative to control
T1 sequence (whole entry): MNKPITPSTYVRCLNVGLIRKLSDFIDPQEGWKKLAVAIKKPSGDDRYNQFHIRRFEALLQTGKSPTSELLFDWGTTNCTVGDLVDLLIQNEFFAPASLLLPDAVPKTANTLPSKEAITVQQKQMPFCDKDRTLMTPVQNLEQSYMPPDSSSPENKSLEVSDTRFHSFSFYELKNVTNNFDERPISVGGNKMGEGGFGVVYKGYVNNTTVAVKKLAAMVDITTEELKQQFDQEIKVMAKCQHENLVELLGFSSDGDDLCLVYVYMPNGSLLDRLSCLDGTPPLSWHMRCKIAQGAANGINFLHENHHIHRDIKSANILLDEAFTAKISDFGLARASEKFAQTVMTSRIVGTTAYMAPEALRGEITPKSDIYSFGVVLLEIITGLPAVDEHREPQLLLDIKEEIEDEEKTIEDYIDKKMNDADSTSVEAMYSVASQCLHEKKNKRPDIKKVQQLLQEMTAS

[4] = molecular target: Mitogen-activated protein kinase 8 (Homo sapiens) (UniProt P45983); assay: Inhibition of human JNK1 assessed as residual activity at 1 uM relative to control
Sequence of Mitogen-activated protein kinase 8 (Homo sapiens) (P45983 whole entry): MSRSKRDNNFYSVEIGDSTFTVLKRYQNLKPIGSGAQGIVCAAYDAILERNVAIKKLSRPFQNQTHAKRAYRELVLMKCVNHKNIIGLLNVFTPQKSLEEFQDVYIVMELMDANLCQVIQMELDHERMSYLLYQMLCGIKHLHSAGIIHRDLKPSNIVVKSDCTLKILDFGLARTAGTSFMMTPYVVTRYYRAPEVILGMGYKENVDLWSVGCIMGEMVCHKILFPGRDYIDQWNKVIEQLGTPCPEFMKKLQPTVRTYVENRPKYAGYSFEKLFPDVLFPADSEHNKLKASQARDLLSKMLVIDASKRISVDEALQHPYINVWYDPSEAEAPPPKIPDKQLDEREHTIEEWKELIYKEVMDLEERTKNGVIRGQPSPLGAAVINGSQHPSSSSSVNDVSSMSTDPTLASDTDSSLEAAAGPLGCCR

[5] = molecular target: Serine/threonine-protein kinase Nek6 (Homo sapiens) (UniProt Q9HC98); assay: Inhibition of human NEK6 assessed as residual activity at 0.1 uM relative to control
Sequence of Serine/threonine-protein kinase Nek6 (Homo sapiens) (Q9HC98 whole entry): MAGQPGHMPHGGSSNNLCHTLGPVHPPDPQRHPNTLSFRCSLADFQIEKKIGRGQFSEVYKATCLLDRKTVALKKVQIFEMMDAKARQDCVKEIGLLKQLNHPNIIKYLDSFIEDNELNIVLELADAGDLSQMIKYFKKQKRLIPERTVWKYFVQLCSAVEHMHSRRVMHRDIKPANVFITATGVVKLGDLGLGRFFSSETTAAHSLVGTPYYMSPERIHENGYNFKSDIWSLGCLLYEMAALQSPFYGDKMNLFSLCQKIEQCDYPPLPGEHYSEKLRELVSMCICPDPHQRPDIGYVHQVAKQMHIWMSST

[6] = molecular target: Serine/threonine-protein kinase pim-1 (Homo sapiens) (UniProt P11309); assay: Inhibition of human PIM1 assessed as residual activity at 1 uM relative to control
Sequence of Serine/threonine-protein kinase pim-1 (Homo sapiens) (P11309 whole entry, looked up): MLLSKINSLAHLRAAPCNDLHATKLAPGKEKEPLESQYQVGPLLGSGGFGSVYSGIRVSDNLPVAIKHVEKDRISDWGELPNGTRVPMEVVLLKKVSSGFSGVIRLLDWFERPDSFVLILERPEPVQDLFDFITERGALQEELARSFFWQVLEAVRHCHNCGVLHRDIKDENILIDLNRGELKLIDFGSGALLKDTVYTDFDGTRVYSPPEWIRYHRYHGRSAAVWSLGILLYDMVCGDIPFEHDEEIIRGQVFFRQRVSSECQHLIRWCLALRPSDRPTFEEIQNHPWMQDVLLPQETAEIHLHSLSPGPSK

[7] = molecular target: T2, Serine/threonine-protein kinase D1 (Homo sapiens) (UniProt Q15139); assay: Inhibition of human PKCmu assessed as residual activity at 1 uM relative to control
T2 sequence (whole entry): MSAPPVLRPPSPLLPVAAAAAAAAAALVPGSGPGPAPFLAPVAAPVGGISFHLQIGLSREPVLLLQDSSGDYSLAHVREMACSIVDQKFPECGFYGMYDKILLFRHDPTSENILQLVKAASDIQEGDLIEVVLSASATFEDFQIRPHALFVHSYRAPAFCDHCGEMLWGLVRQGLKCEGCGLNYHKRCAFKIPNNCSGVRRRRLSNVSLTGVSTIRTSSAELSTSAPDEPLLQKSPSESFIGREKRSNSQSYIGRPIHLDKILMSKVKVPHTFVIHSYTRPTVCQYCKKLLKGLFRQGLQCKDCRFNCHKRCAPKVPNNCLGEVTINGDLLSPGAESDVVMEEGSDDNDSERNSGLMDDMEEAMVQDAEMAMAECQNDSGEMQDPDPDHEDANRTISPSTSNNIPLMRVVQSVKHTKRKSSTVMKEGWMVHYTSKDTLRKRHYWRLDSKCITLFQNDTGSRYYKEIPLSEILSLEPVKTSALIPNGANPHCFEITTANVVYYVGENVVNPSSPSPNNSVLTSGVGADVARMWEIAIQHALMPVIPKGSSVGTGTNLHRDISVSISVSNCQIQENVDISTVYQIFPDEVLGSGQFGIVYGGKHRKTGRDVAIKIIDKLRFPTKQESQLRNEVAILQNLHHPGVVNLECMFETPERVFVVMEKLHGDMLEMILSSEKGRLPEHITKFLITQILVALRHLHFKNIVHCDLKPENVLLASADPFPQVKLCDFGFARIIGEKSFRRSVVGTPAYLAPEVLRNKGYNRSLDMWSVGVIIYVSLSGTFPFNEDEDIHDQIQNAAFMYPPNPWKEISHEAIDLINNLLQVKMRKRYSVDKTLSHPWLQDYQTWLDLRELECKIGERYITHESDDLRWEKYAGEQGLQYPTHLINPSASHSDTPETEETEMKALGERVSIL

[8] = molecular target: Proto-oncogene tyrosine-protein kinase Src (Homo sapiens) (UniProt P12931); assay: Inhibition of human GST-HIS-tagged SRC assessed as residual activity at 0.1 uM relative to control
Sequence of Proto-oncogene tyrosine-protein kinase Src (Homo sapiens) (P12931 2-536 limits assumed): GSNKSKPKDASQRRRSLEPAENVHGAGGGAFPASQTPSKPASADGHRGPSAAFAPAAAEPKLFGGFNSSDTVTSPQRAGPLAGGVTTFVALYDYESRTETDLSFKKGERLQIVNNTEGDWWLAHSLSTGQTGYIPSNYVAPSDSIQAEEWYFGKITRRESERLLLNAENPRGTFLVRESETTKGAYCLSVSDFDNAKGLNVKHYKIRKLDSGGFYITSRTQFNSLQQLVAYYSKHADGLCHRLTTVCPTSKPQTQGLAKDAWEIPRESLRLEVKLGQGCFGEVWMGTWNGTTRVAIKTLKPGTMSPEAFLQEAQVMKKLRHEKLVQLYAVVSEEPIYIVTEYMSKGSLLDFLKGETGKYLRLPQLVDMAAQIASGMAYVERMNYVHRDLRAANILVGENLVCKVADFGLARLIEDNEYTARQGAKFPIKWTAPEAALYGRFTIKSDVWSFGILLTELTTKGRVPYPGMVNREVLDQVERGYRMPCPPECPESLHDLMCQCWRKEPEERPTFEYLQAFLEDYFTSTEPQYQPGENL

[9] = molecular target: Proto-oncogene tyrosine-protein kinase Src (Homo sapiens) (UniProt P12931); assay: Inhibition of human GST-HIS-tagged SRC assessed as residual activity at 1 uM relative to control
[10] = molecular target: T3, Serine/threonine-protein kinase TBK1 (Homo sapiens) (UniProt Q9UHD2); assay: Inhibition of human TBK1 assessed as residual activity at 1 uM relative to control
T3 sequence (whole entry): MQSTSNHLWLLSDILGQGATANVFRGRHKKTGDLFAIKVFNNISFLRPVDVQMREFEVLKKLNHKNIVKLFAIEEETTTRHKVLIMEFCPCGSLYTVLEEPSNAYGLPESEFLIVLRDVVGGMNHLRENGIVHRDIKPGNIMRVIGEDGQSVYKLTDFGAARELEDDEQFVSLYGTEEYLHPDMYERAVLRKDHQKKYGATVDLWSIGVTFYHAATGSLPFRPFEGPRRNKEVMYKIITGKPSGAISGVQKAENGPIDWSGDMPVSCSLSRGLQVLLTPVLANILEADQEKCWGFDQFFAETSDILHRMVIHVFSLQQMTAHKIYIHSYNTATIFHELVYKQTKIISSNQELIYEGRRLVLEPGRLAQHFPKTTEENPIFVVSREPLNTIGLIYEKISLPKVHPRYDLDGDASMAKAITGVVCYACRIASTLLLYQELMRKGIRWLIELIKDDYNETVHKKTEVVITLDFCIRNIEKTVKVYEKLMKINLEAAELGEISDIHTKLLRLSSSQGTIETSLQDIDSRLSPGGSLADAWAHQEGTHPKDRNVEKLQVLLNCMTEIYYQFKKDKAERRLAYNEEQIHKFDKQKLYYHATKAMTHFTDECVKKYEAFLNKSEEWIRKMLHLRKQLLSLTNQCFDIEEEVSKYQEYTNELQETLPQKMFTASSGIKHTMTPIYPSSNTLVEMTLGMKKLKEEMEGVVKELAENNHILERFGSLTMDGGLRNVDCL

Sequence of Tyrosine-protein kinase BTK (Homo sapiens) (Q06187 whole entry): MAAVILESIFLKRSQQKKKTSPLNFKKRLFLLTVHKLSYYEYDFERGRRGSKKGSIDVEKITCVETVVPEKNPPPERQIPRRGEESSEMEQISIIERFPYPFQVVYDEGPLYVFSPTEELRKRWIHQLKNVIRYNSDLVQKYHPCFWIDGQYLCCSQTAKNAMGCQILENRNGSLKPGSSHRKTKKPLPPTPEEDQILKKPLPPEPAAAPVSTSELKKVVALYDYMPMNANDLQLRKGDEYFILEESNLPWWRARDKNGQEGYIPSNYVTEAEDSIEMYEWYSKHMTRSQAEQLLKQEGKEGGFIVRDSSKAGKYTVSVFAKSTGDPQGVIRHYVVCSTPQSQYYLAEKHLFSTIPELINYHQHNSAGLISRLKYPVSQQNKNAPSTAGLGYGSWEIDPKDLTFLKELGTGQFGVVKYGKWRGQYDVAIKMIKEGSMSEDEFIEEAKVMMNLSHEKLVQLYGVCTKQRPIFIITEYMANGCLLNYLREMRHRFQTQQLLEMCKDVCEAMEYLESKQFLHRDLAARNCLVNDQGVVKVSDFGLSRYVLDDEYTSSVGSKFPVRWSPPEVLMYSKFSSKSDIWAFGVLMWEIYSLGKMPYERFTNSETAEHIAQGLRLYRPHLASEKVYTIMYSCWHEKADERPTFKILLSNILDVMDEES

| Compound | Activity [1] | Activity [2] | Activity [3] | Activity [4] | Activity [5] | Activity [6] | Activity [7] | Activity [8] | Activity [9] | Activity [10] |
| --- | --- | --- | --- | --- | --- | --- | --- | --- | --- | --- |
| COc1ccc2c(c1)c(/C=C1\C(=O)Nc3ccc(S(N)(=O)=O)cc31)cn2C | 117% | 97% | 20% | 95% | 106% | 88% | 91% | 113% | 91% | 55% |
| COc1ccc2[nH]cc(/C=C3\C(=O)Nc4ccc(S(N)(=O)=O)cc43)c2c1 | 100% | 94% | 9% | 87% | 117% | 79% | 72% | 107% | 74% | 62% |
| CN(C)S(=O)(=O)c1ccc2c(c1)/C(=C/c1cn(C)c3ccc(O)cc13)C(=O)N2 | 95% | 103% | 52% | 97% | 104% | 95% | 89% | 79% | 68% | 81% |
| Cn1cc(/C=C2\C(=O)Nc3ccc(S(N)(=O)=O)cc32)c2ccccc21 | 111% | 90% | 3% | 94% | 111% | 93% | 91% | 124% | 108% | 58% |
| COc1ccc2c(c1)c(/C=C1\C(=O)Nc3ccc(S(=O)(=O)N(C)C)cc31)cn2C | 89% | 94% | 83% | 100% | 100% | 97% | 92% | 93% | 70% | 79% |
| CNS(=O)(=O)c1ccc2c(c1)/C(=C/c1cn(C)c3ccc(OC)cc13)C(=O)N2 | 97% | 80% | 37% | 112% | 99% | 88% | 93% | 92% | 73% | 93% |
